Series [1] relates to hypersensitivity to mechanical stimulation. The note with it: in vivo; cited from earlier work.
The subject of a further series is SNL model rats. Description: Rat spinal nerve ligation model (SNL or Chung model), Dynamic Plantar Aesthesiometer test. The class given is in vivo. The note with it: 50 mg/kg oral once a day for 7 days from the 15th day after SNL surgery, vs solvent group. How it is done:
In order to confirm the effect of Compound 7 on neuropathic pain, the effect of Compound 7 on allodynia caused by mechanical stimulation occurring in SNL model rats was investigated. Compound 7 was orally administered to rats as a test drug, and the following tests were carried out.
As an experimental animal, a 6-week-old Sprague Dawley male rat (180 to 210 g) was used. The surgery was performed according to the procedure described in Chung et al., Pain, 1992, 50, 355-363. Under isoflurane anesthesia, a longitudinal incision was made in the dorsal skin from the thoracic spine to the sacral spine level. After incision and isolation of the paravertebral muscles, the L5 and L6 transverse processes were removed to expose the L5 and L6 spinal nerves. These nerves were ligated with 5-0 silk suture. Sham operated animals were treated identically with the exception that the nerves were not ligated. The muscle was sutured in layers, and the skin was closed with silk suture.
The experimental animals consisted of 6 groups: a sham operation group, a solvent administration group, and each administration group of either 0.4, 2, 10, or 50 mg/kg of Compound 7 (Compound 7-administration group). […]
The pain threshold for mechanical stimulation in the above rats, was measured using a Dynamic Plantar Aesthesiometer (manufactured by Ugo Basile).

Series [2] is described as follows: Central tissue distribution in humans: exposure to the cerebrospinal fluid after repeated oral administration. The class given is in vivo, human. The note with it: healthy subjects.
The nature of series [3]: Study for pharmacokinetics in blood after oral administration to rats. The class given is in vivo. The note with it: male, Crl: CD (SD), rat, 30 mg/kg, oral 30 mg/kg once daily. How it is done:
Rats (strain: Crl: CD (SD), male, 7 weeks old, with diet) were orally administered a methylcellulose suspension containing a P2X7 receptor antagonist compound (Compound 7 or Compound 10). Then blood was collected from rats 15 and 30 minutes, 1, 2, 4, 8 and 24 hours after the administration, and the concentration of the compound contained in the collected blood was measured. The dose of the compound per dose was 30 mg/kg, and the concentration of the compound in the suspension was 3 mg/mL. Administration was carried out once daily for 4 consecutive days.
The variations of a blood level of the compound with the passage of time were analyzed by a conventional method, and the pharmacokinetic parameters were estimated.

In a further series the test system is CCI model rats. Kind of series: Rat chronic stenosis injury model (CCI or Bennett model), Randall-Selitto test. The class given is in vivo. The note with it: 2, 10 or 50 mg/kg single oral dose 3 hours before measurement, 12 days after CCI surgery, vs solvent group. How it is done: In order to confirm the effect of Compound 7 on neuropathic pain, the effect of Compound 7 on hyperalgesia caused by mechanical stimulation occurring in CCI model rats was investigated. Compound 7 was orally administered to rats as an investigational drug, and the following studies were carried out.
As an experimental animal, a 7-week-old Sprague Dawley male rat (220.4 to 328.0 g) was used. The surgery was performed according to the procedure described in Bennett et al., Pain, 1988, 33, 87-107. Under isoflurane anesthesia, the right sciatic nerve was exposed via a blunt incision in the biceps femoris. Proximal to the bifurcation of the sciatic nerve, the nerve was freed of adhering tissue and 4 loose ligatures of 4-0 silk were tied around the nerve. Spacing between ligatures was approximately 1 mm. The muscle was sutured in layers, and the skin closed with silk suture.
The experimental animals were composed of four groups: a solvent administration group and each administration group of either 2, 10 or 50 mg/kg of Compound 7 (Compound 7-administration group). Compound 7 was orally administered to the Compound 7-administration group in a single dose 3 hours before the measurement test performed 12 days after CCI surgery. […]
The baseline threshold value was measured before CCI surgery, and then the pain threshold value was measured 12 days after surgery.

The nature of series [4]: Study for assessing the central tissue distribution after oral administration to rats. The note with it: for concentration at 1 h: male, Crl: CD (SD), plasma; for concentration at 1 h / Brain concentration / Spinal cord concentration: rat, oral 30 mg/kg, 1 hour after administration, mean value; for Distribution to blood and central tissue (in words): oral administration. The class given is in vivo, rat. Here is the method: Rats (strain: Crl: CD (SD), male, 7 weeks old, with diet) were orally administered a methylcellulose suspension containing a P2X7 receptor antagonist compound (Compound 7 or Compound 10). Then central tissue was collected from rats 1 hour after its administration, and the compound distribution to the collected central tissue was assessed. The dose of the compound per dose was 30 mg/kg, and the concentration of the compound in the suspension was 3 mg/mL.
The study was carried out with n=2 or n=3.

For series [5], the system named is animal models of bone cancer. The note with it: cited from earlier work.
A further series has as its system neuropathic pain in rats. The note with it: cited from earlier work.
The test system of another series is neuropathy model rats. The note with it: 30 mg/kg; cited from earlier work.
The subject of series [6] is amphetamine-induced hypersensitivity. The note with it: 30 mg/kg; cited from earlier work.

Each structure is given as a SMILES string. Structures can show the parent of a compound that is named as a salt.

For orientation: AUC(0-t) means exposure summed from dosing to a finite time, without extrapolation to infinity. Low readings indicate low exposure, high ones high exposure. For orientation: Cmax means the highest concentration seen after dosing. A word on the Tmax: it is the time from dosing to the highest level.

As to `Clc1cccc(-c2nnnn2Cc2cccnc2)c1Cl` [A438079 hydrochloride], the “Effect on development of hypersensitivity to mechanical stimulation” value in series [1] is recorded as “suppressed the development of hypersensitivity to mechanical stimulation”.
As to `O=C(NCc1ccc(F)cc1Cl)[C@]1(F)CC[C@@](O)(CO)c2ncccc21` [Compound 7, (5S,8S)-N-(2-chloro-4-fluorobenzyl)-5-fluoro-8-hydroxy-8-(hydroxymethyl)-5,6,7,8-tetrahydroquinoline-5-carboxamide], in the series on SNL model rats, the “Pain threshold value for mechanical stimulation lowered by SNL surgery” value is “significantly increased”. For the same molecule, the “Exposure to the cerebrospinal fluid” value in series [2] is “Sufficient Exposure”. For the same molecule, in series [3] (Day 1 of administration), the area under the curve AUC(0-t) is 80.1 µM·h, the Cmax was found to be 18.5 µM and the time to peak (Tmax) was 20 min. In series [3] (Day 4 of administration), the area under the curve AUC(0-t) is 77.4 µM·h, the peak concentration (Cmax) amounted to 14.7 µM and the Tmax was 35 min. Further, the “Pain threshold value (paw pressure) lowered by CCI surgery” value in the series with CCI model rats was “significantly increased in all the administration groups”. Besides, in series [4], the concentration at 1 h was 19.3 µM; the “Distribution to blood and central tissue (in words)” value is “sufficient distribution to blood, brain and spinal cord”; the Brain concentration was 23.6 nmol/g tissue; the Spinal cord concentration was 27.7 nmol/g tissue.
`Clc1cccc(-c2nnnn2Cc2cccnc2)c1Cl` [Compound A-438079]: in series [5], the “Effect on bone cancer-related behavior” value is listed as “could not alleviate bone cancer-related behavior”.
`O=C(NCc1ccc(Cl)cc1Cl)[C@]1(F)CC[C@@](O)(CO)c2ncccc21` [Compound 10, (5S,8S)-N-(2,4-dichlorobenzyl)-5-fluoro-8-hydroxy-8-(hydroxymethyl)-5,6,7,8-tetrahydroquinoline-5-carboxamide]: in series [3] (Day 1 of administration), the exposure AUC(0-t) was determined as 48.8 µM·h, the peak concentration (Cmax) is 9.54 µM and the time to peak (Tmax) worked out at 20 min. Further, in series [3] (Day 4 of administration), the AUC(0-t) came out at 45.6 µM·h, the Cmax is 8.27 µM and the Tmax amounted to 15 min. In [4], the concentration at 1 h came out at 5.08 µM; the “Distribution to blood and central tissue (in words)” value was “sufficient distribution to blood, brain and spinal cord”; the Brain concentration turned out to be 9.22 nmol/g tissue; the Spinal cord concentration is given as 11.4 nmol/g tissue.
Turning to `COc1ccc(CC(=O)NC(NC(=NC#N)Nc2cccc3ncccc23)C(C)(C)C)cc1OC` (stereo not shown) [Compound A-740003, N-(1-{[(cyanoimo) (5-quinolinylamino)methyl]amino}-2,2-dimethylpropyl)-2-(3,4-dimethoxyphenyl)acetamide], the “Effect on neuropathic pain” value in the series on neuropathic pain in rats was “reduced neuropathic pain in rats in a dose-dependent manner”.
Turning to `O=C(NCC1(N2CCN(c3ccccc3)CC2)CCOCC1)c1cccnc1Sc1ccccc1` [JNJ-47965567], the “Efficacy in neuropathy model rats” value with neuropathy model rats is recorded as “not a large but a significant efficacy”. In [6], the “Effect on amphetamine-induced hypersensitivity” value is listed as “alleviated the amphetamine-induced hypersensitivity”.

The values are drawn from US20240009180A1, “MEDICINE FOR ALLEVIATING NEUROPATHIC PAIN” (Asahi Kasei Pharma Corporation, priority 2020, published 2024).
